# Results taken from patent US9695152B2, “3,4-dihydro-2H-isoquinoline-1-one and 2,3-dihydro-isoindol-1-one compounds” (Hoffmann-La Roche Inc., priority 2013, dated 2017).
# How the values were obtained:
# CYP11B2 = CYP11B2 (Homo sapiens (Human), UniProt P19099); test: G-402 cellular enzyme assay, human CYP11B2 (aldosterone release, HTRF); assay type: cell-based; settings: G-402 cells expressing human CYP11B2, 1 μM Deoxycorticosterone
# Description: (§1) Herein we identified the use of the G-402 cell line as a host cell to ectopically express (transiently or stably) enzymes of the CYP11 family. Specifically we developed stable G-402 cells expressing ectopically human CYP11B1, human CYP11B2, human CYP11A1, cynmolgus CYP11B1 or cynomolgus CYP11B2 enzyme activity. Importantly the identified cell line G-402 expresses co-factors (adrenodoxin and adrenodoxin reductase) important for the activity of the CYP11 family and no relevant enzyme activity of the CYP11 family (in comparison to H295R cells) was detected in these cells. Therefore the G-402 cell line is uniquely suited as a host cell for the ectopic expression of enzymes from the CYP11 family.
# (§2) G-402 cells can be obtained from ATCC (CRL-1440) and were originally derived from a renal leiomyoblastoma.
# (§3) The expression plasmids contains the ORF for either human/cyno CYP11B1 or CYP11B2 under the control of a suitable promoter (CMV-promoter) and a suitable resistance marker (neomycin). Using standard techniques the expression plasmid is transfected into G-402 cells and these cells are then selected for expressing the given resistance markers. Individual cell-clones are then selected and assessed for displaying the desired enzymatic activity using 11-Deoxycorticosterone (Cyp11B2) or 11-Deoxycortisol (Cyp11B1) as a substrate.
# (§4) G-402 cells expressing CYP11 constructs were established as described above and maintained in McCoy's 5a Medium Modified, ATCC Catalog No. 30-2007 containing 10% FCS and 400 μg/ml G418 (Geneticin) at 37° C. under an atmosphere of 5% CO2/95% air. Cellular enzyme assays were performed in DMEM/F12 medium containing 2.5% charcoal treated FCS and appropriate concentration of substrate (0.3-10 uM 11-Deoxycorticosterone, 11-Deoxycortisol or Corticosterone). For assaying enzymatic activity, cells were plated onto 96 well plates and incubated for 16 h. An aliquot of the supernatant is then transferred and analyzed for the concentration of the expected product (Aldosterone for CYP11B2; Cortisol for CYP11B1). The concentrations of these steroids can be determined using HTRF assays from CisBio analyzing either Aldosterone or Cortisol.
# (§5) Inhibition of the release of produced steroids can be used as a measure of the respective enzyme inhibition by test compounds added during the cellular enzyme assay. The dose dependent inhibition of enzymatic activity by a compound is calculated by means of plotting added inhibitor concentrations (x-axes) vs. measured steroid/product level (y-axes). The inhibition is then calculated by fitting the following 4-parameter sigmoidal function (Morgan-Mercer-Flodin (MMF) model) to the raw data points using the least squares method:
# (§6) [formula] wherein, A is the maximum y value, B is the EC50 factor determined using XLFit, C is the minimum y value and D is the slope value.
# (§7) EC50 values for compounds claimed herein were tested with the G402-based assay system described. Cyp11B2 enzyme activity was tested in presence of 1 μM Deoxycorticosterone and variable amounts of inhibitors; Cyp11B1 enzyme activity was tested in presence of 1 μM Deoxycortisol and variable amounts of inhibitors.
# human CYP11B1 = human CYP11B1 (Homo sapiens (Human), UniProt P15538); test: G-402 cellular enzyme assay, human CYP11B1 (cortisol release, HTRF); assay type: cell-based; settings: G-402 cells expressing human CYP11B1, 1 μM Deoxycortisol
# Description: as §1, §2, §3, §4, §5, §6, §7
# CYP11B2, sequence (P19099 25-503): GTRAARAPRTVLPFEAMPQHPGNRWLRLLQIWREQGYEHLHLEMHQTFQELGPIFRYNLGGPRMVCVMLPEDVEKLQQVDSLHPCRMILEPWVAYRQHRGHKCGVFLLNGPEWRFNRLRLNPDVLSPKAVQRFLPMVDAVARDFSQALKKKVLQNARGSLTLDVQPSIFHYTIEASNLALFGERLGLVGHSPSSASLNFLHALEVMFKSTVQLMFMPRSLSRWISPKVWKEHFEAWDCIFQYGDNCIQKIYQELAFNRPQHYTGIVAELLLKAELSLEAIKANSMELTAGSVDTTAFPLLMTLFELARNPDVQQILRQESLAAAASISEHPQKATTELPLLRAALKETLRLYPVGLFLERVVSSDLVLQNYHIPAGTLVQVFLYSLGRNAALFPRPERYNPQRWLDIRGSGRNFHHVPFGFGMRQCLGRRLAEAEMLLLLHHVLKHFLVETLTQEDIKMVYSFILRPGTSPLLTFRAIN
# human CYP11B1, sequence (P15538 25-503): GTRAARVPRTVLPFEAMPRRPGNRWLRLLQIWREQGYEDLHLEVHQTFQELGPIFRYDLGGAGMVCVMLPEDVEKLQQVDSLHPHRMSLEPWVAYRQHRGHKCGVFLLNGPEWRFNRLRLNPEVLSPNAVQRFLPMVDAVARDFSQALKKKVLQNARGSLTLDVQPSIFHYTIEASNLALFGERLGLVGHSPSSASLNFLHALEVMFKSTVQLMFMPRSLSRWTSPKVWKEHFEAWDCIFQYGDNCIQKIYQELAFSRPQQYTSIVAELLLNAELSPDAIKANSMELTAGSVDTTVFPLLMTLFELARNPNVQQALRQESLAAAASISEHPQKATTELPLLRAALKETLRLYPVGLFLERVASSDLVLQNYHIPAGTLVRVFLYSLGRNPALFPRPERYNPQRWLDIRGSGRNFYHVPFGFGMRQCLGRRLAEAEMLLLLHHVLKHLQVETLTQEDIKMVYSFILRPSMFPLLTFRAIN
EC50 (CYP11B2) [nM],EC50 (human CYP11B1) [nM],Compound
7,4360,"Cc1ccncc1C(=O)N1CC(Nc2cncc(N3C(=O)c4ccc(Cl)cc4[C@H]3C)c2)C1 (single isomer, unassigned) [Example 25, (3R or 3S)-5-Chloro-3-methyl-2-[5-[[1-(4-methylpyridine-3-carbonyl)azetidin-3-yl]amino]-3-pyridyl]isoindolin-1-one]"
16,1910,"Cc1ccncc1C(=O)N1CC(Nc2cncc(N3C(=O)c4ccc(Cl)cc4[C@H]3C)c2)C1 (single isomer, unassigned) [Example 26, (3S or 3R)-5-Chloro-3-methyl-2-[5-[[1-(4-methylpyridine-3-carbonyl)azetidin-3-yl]amino]-3-pyridyl]isoindolin-1-one]"
20,1130,"C[C@@H]1c2cc(Cl)ccc2C(=O)N1c1cncc(NC2CN(C(=O)c3ncccc3Cl)C2)c1 (single isomer, unassigned) [Example 27, (3R or 3S)-5-Chloro-2-[5-[[1-(3-chloropyridine-2-carbonyl)azetidin-3-yl]amino]-3-pyridyl]-3-methyl-isoindolin-1-one]"
27,533,"C[C@H]1c2cc(Cl)ccc2C(=O)N1c1cncc(NC2CN(C(=O)c3ncccc3Cl)C2)c1 (single isomer, unassigned) [Example 28, (3S or 3R)-5-Chloro-2-[5-[[1-(3-chloropyridine-2-carbonyl)azetidin-3-yl]amino]-3-pyridyl]-3-methyl-isoindolin-1-one]"
29,5810,"C[C@@H]1c2cc(Cl)ccc2C(=O)N1c1cncc(NC2CN(S(=O)(=O)C3CC3)C2)c1 (single isomer, unassigned) [Example 29, (3R or 3S)-5-Chloro-2-[5-[(1-cyclopropylsulfonylazetidin-3-yl)amino]-3-pyridyl]-3-methyl-isoindolin-1-one]"
18,652,"C[C@@H]1c2cc(Cl)ccc2C(=O)N1c1cncc(NC2CN(S(=O)(=O)C3CC3)C2)c1 (single isomer, unassigned) [Example 30, (3S or 3R)-5-Chloro-2-[5-[(1-cyclopropylsulfonylazetidin-3-yl)amino]-3-pyridyl]-3-methyl-isoindolin-1-one]"
2,56,"CN(c1cncc(N2C(=O)c3ccc(Cl)cc3C2(C)C)c1)C1CCN(S(=O)(=O)C2CC2)C1 (single isomer, unassigned; (+)) [Example 4, (+)-5-Chloro-2-[5-[[(3R or 3S)-1-cyclopropylsulfonylpyrrolidin-3-yl]-methylamino]pyridin-3-yl]-3,3-dimethylisoindol-1-one]"
230,> 30000,"CC1(C)c2cc(Cl)ccc2C(=O)N1c1cncc(NC2CCCN(S(=O)(=O)C3CC3)C2)c1 (single isomer, unassigned; (+)) [Example 7, (+)-5-Chloro-2-[5-[[(3R or 3S)-1-cyclopropylsulfonylpiperidin-3-yl]amino]pyridin-3-yl]-3,3-dimethylisoindol-1-one]"
1,133,"CN(c1cncc(N2C(=O)c3ccc(Cl)cc3C2(C)C)c1)C1CCN(S(=O)(=O)C2CC2)C1 (single isomer, unassigned; (-)) [Example 5, (−)-5-chloro-2-[5-[[(3S or 3R)-1-cyclopropylsulfonylpyrrolidin-3-yl]-methylamino]pyridin-3-yl]-3,3-dimethylisoindol-1-one]"
365,19500,"CC1(C)c2cc(Cl)ccc2C(=O)N1c1cncc(NC2CCCN(S(=O)(=O)C3CC3)C2)c1 (single isomer, unassigned; (-)) [Example 8, (−)-5-Chloro-2-[5-[[3S or 3R)-1-cyclopropylsulfonylpiperidin-3-yl]amino]pyridin-3-yl]-3,3-dimethylisoindol-1-one]"
9,1250,"CC1(C)c2cc(Cl)ccc2C(=O)N1c1cncc(NC2CN(S(=O)(=O)C3CC3)C2)c1 [Example 1, 5-Chloro-2-[5-[(1-cyclopropylsulfonylazetidin-3-yl)amino]pyridin-3-yl]-3,3-dimethylisoindol-1-one]"
4,450,"Cn1ccnc1C(=O)N1CC(Nc2cncc(N3C(=O)c4ccc(Cl)cc4C3(C)C)c2)C1 [Example 2, 5-Chloro-3,3-dimethyl-2-[5-[[1-(1-methylimidazole-2-carbonyl)azetidin-3-yl]amino]-3-pyridyl]isoindolin-1-one]"
0.4,18,"CN(c1cncc(N2C(=O)c3ccc(Cl)cc3C2(C)C)c1)C1CN(S(=O)(=O)C2CC2)C1 [Example 3, 5-Chloro-2-[5-[(1-cyclopropylsulfonylazetidin-3-yl)-methylamino]pyridin-3-yl]-3,3-dimethylisoindol-1-one]"
1,4,CN(c1cncc(N2C(=O)c3ccc(Cl)cc3C2(C)C)c1)C1CCN(S(=O)(=O)C2CC2)CC1 [Example 6]
7,297,"CC1(C)c2cc(Cl)ccc2C(=O)N1c1cncc(NC2CN(C(=O)c3ncccc3Cl)C2)c1 [Example 9, 5-Chloro-2-[5-[[1-(3-chloropyridine-2-carbonyl)azetidin-3-yl]amino]pyridin-3-yl]-3,3-dimethylisoindol-1-one]"
11,1740,"Cc1ccncc1C(=O)N1CC(Nc2cncc(N3C(=O)c4ccc(Cl)cc4C3(C)C)c2)C1 [Example 10, 5-Chloro-3,3-dimethyl-2-[5-[[1-(4-methylpyridin-3-carbonyl)azetidin-3-yl]amino]pyridin-3-yl]isoindol-1-one]"
3,1950,"Cc1cncc(C(=O)N2CC(Nc3cncc(N4C(=O)c5ccc(Cl)cc5C4(C)C)c3)C2)c1 [Example 11, 5-Chloro-3,3-dimethyl-2-[5-[[1-(5-methylpyridine-3-carbonyl)azetidin-3-yl]amino]pyridin-3-yl]isoindol-1-one]"
18,1830,"CC1c2cc(Cl)ccc2C(=O)N1c1cncc(NC2CN(C(=O)c3ncccc3Cl)C2)c1 (stereo not drawn) [Example 12, 5-Chloro-2-[5-[[1-(3-chloropyridine-2-carbonyl)azetidin-3-yl]amino]pyridin-3-yl]-3-methyl-3H-isoindol-1-one]"
7,4900,"Cc1ccncc1C(=O)N1CC(Nc2cncc(N3C(=O)c4ccc(Cl)cc4C3C)c2)C1 (stereo not drawn) [Example 13, 5-Chloro-3-methyl-2-[5-[[1-(4-methylpyridine-3-carbonyl)azetidin-3-yl]amino]pyridin-3-yl]-3H-isoindol-1-one]"
131,2890,"CC1c2cc(Cl)ccc2C(=O)N1c1cncc(NC2CN(S(=O)(=O)C3CC3)C2)c1 (stereo not drawn) [Example 14, 5-Chloro-2-[5-[(1-cyclopropylsulfonylazetidin-3-yl)amino]pyridin-3-yl]-3-methyl-3H-isoindol-1-one]"
148,9560,"O=C1c2ccc(Cl)cc2CCN1c1cncc(NC2CN(S(=O)(=O)C3CC3)C2)c1 [Example 15, 6-Chloro-2-[5-[(1-cyclopropylsulfonylazetidin-3-yl)amino]pyridin-3-yl]-3,4-dihydroisoquinolin-1-one]"
10,5340,"Cc1ccncc1C(=O)N1CC(Nc2cncc(N3CCc4cc(Cl)ccc4C3=O)c2)C1 [Example 16, 6-Chloro-2-[5-[[1-(4-methylpyridine-3-carbonyl)azetidin-3-yl]amino]pyridin-3-yl]-3,4-dihydroisoquinolin-1-one]"
145,1910,"O=C(c1ncccc1Cl)N1CC(Nc2cncc(N3CCc4cc(Cl)ccc4C3=O)c2)C1 [Example 17, 6-Chloro-2-[5-[[1-(3-chloropyridine-2-carbonyl)azetidin-3-yl]amino]pyridin-3-yl]-3,4-dihydroisoquinolin-1-one]"
9,1290,"Cc1cncc(C(=O)N2CC(Nc3cncc(N4CCc5cc(Cl)ccc5C4=O)c3)C2)c1 [Example 18, 6-Chloro-2-[5-[[1-(5-methylpyridine-3-carbonyl)azetidin-3-yl]amino]pyridin-3-yl]-3,4-dihydroisoquinolin-1-one]"
